The values below come from US4264625A, “Pesticidal unsymmetrical bis-arylcarbamate sulfide compounds” (Union Carbide Corporation, priority 1978, dated 1981).

SMILES strings stand for the structures.

Common to all, as to format: in vivo
Data set [1] deals with southern armyworm (Prodenia eridania, (Cram.)). Put plainly: Southern Armyworm Leaf Spray Test. On the set-up: key: A: excellent control; B: partial control; C: no control. The conditions noted are these: 500 ppm leaf spray, larvae, three days, mortality rating. The procedure: (§1) Suspensions of the test compounds were prepared by dissolving one gram of compound in 50 milliliters of acetone in which had been dissolved 0.1 gram (10 percent of the weight of compound) of an alkylphenoxy polyethoxyethanol surfactant, as an emulsifying or dispersing agent. The resulting solution was mixed into 150 milliliters of water to give roughly 200 milliliters of a suspension containing the compound in finely divided form. The thus-prepared stock suspension contained 0.5 percent by weight of compound. The test concentrations in parts per million by weight employed in the tests described hereinbelow were obtained by appropriate dilutions of the stock suspension with water. The test procedures were as follows:
Southern Armyworm Leaf Spray Test
Larvae of the southern armyworm (Prodenia eridania, (Cram.)), reared on Tendergreen bean plants at a temperature of 80°±5° F. and a relative humidity of 50±5 percent, constituted the test insects.
The test compounds were formulated by diluting the stock suspension with water to give a suspension containing 500 parts of test compound per million parts of final formulation. Potted Tendergreen bean plants of standard height and age were placed on a revolving turntable and sprayed with 100-110 milliliters of test compound formulation by use of a DeVilbiss spray gun set at 10 psig air pressure. This application, which lasted 25 seconds, was sufficient to wet plants to run-off. As a control, 100-110 milliliters of a water-acetone-emulsifier solution containing no test compound were also sprayed on infested plants. When dry, the paired leaves were separated and each one was placed in a 9 centimeter Petri dish lined with moistened filter paper. Five randomly selected larvae were introduced into each dish and the dishes were closed. The closed dishes were labeled and held at 80°-85° F. for three days. Although the larvae could easily consume the whole leaf within twenty-four hours, no more food was added. Larvae which were unable to move the length of the body, even upon stimulation by prodding, were considered dead. Percent mortality was recorded for various concentration levels.
(§2) In these tests the pesticidal activity of the compounds against aphid, mite, Southern Armyworm, Bean Beetle and house fly was rated as follows: […]

The test system of another data set is Corn. The conditions noted are these: 2500 ppm spray, ten days, rating 1-5. The procedure: (§3) POST-EMERGENT HERBICIDAL TEST
(§4) Experiments were also conducted to determine the phytotoxicity of representative compositions with respect to healthy fresh plants. Solutions of the compounds were prepared as described above to provide a concentration of 2500 parts per million of the test compound. The test plants were sprayed in accordance with the procedure described above for the Mite Foliage Spray Test so as to deliver approximately 100 milliliters of test solution to the leaves of each plant tested. The sprayed plants and controls were set aside for approximately one hour to allow the solutions to dry and were then placed in the greenhouse. After ten days the plants were visually inspected to determine the extent of foliage injury. A rating of 1 indicates no perceptible injury; 5 indicates the plant was dead and ratings of 2, 3 and 4 indicate intermediate degrees of injury based upon the number and extent to which leaves were injured.

The next data set has as its system Cotton. Particulars: 2500 ppm spray, ten days, rating 1-5. The procedure:
as §3, §4

The next data set relates to Soybean. Particulars: 2500 ppm spray, ten days, rating 1-5. How it is done: as §3, §4
The test system of a further data set is Tomato. The conditions noted are these: 2500 ppm spray, ten days, rating 1-5. The procedure:
as §3, §4

The next data set deals with Bean. The conditions noted are these: 2500 ppm spray, ten days, rating 1-5. The procedure: as §3, §4
The subject of data set [2] is two-spotted mite (Tetranychus urticae Koch). The data set is described as follows: Mite Foliage Spray Test. The arrangement: key: A: excellent control; B: partial control; C: no control. The conditions noted are these: 500 ppm foliage spray, six days, mortality rating. The procedure:
as §1
Adults and nymphal stages of the two-spotted mite (Tetranychus urticae Koch), reared on Tendergreen bean plants at 80±5 percent relative humidity, were the test organisms. Infested leaves from a stock culture were placed on the primary leaves of two bean plants six to eight inches in height, growing in a two-and-a-half inch clay pot. 150-200 Mites, a sufficient number for testing, transferred from the excised leaves to the fresh plants in a period of twenty four hours. Following the twenty four hour transfer period, the excised leaves were removed from the infested plants. The test compounds were formulated by diluting the stock suspension with water to give a suspension containing 500 parts of test compound per million parts of final formulation. The potted plants (one pot per compound) were placed on a revolving turntable and sprayed with 100-110 milliliters of test compound formulation by use of a DeVilbiss spray gun set at 40 psig. air pressure. This application, which lasted 25 seconds, was sufficient to wet the plants to run-off. As a control, 100-110 milliliters of a water solution containing acetone and emulsifier in the same concentrations as the test compound formulation, but containing no test compound, were also sprayed on infested plants. The sprayed plants were held at 80±5 percent relative humidity for six days, after which a mortality count of motile forms was made. Microscopic examination for motile forms was made on the leaves of the test plants. Any individual which was capable of locomotion upon prodding was considered living.
as §2

For data set [3], the system named is Mexican bean beetle (Epilachna varivestis, Muls.). The data set is described as follows: Mexican Bean Beetle Leaf Spray Test. Particulars: 500 ppm leaf spray, fourth instar larvae, three days, mortality rating. On the set-up: key: A: excellent control; B: partial control; C: no control. The procedure:
as §1
Mexican Bean Beetle Leaf Spray Test
Fourth instar larvae of the Mexican bean beetle (Epilachna varivestis, Muls.), reared on Tendergreen bean plants at a temperature of 80°±5° F. and 50±5 percent relative humidity, were the test insects.
The test compounds were formulated by diluting the stock suspension with water to give a suspension containing 500 parts of test compound per million parts of final formulation. Potted Tendergreen bean plants of standard height and age were placed on a revolving turntable and sprayed with 100-110 milliliters of test compound formulation by use of a DeVilbiss spray gun set at 10 psig air pressure. This application, which lasted 25 seconds, was sufficient to wet plants to run-off. As a control, 100-110 milliliters of a water-acetone-emulsifier solution containing no test compound were also sprayed on infested plants. When dry, the paired leaves were separated and each was placed in a 9 centimeter Petri dish lined with moistened filter paper. Five randomly selected larvae were introduced into each dish, and the dishes were closed. The closed dishes were labeled and held at a temperature of 80°±5° F. for three days. Although the larvae could easily consume the leaf within 24 to 48 hours, no more food was added. Larvae which were unable to move the length of the body, even upon stimulation, were considered dead.
as §2

In data set [4] the test system is bean aphid (Aphis fabae Scop.). Put plainly: Bean Aphid Foliage Spray Test. The arrangement: key: A: excellent control; B: partial control; C: no control. The conditions noted are these: 500 ppm foliage spray, 24 hours, mortality rating. How it is done:
as §1
Bean Aphid Foliage Spray Test
Adults and nymphal stages of the bean aphid (Aphis fabae Scop.) reared on potted dwarf nasturtium plants at 65°-70° F. and 50-70 percent relative humidity, constituted the test insects. For testing purposes, the number of aphids per pot was standardized to 100-150 by trimming plants containing excess aphids.
The test compounds were formulated by diluting the stock suspension with water to give a suspension containing 500 parts of test compound per million parts of final formulation.
The potted plants (one pot per compound tested) infested with 100-150 aphids, were placed on a revolving turntable and sprayed with 100-110 milliliters of test compound formulation by use of a DeVilbiss spray gun set at 40 psig. air pressure. This application, which lasted 25 seconds, was sufficient to wet the plants to run-off. As a control, 100-110 milliliters of a water-acetone-emulsifier solution containing no test compound were also sprayed on infested plants. After spraying, the pots were placed on their sides on a sheet of white standard mimeograph paper which had been previously ruled to facilitate counting. Temperature and humidity in the test room during the 24 hour holding period were 65°-70° F. and 50-70 percent, respectively. Aphids which fell onto the paper and were unable to remain standing after being uprighted were considered dead. Aphids remaining on the plants were observed closely for movement and those which were unable to move the length of the body upon stimulation by prodding were considered dead. Percent mortality was recorded for various concentration levels.
as §2

For data set [5], the system named is house flies (Musca domestica, L.). The data set is described as follows: Fly Bait Test. The conditions noted are these: 500 ppm in sugar-solution bait, 24 hours, mortality rating. On the set-up: key: A: excellent control; B: partial control; C: no control. How it is done: as §1
Four to six day old adult house flies (Musca domestica, L.) reared according to the specifications of the Chemical Specialties Manufacturing Association (Blue Book, McNair-Dorland Co., N.Y. 1954; pages 243-244, 261) under controlled conditions of 80°±5° F. and 50±5 percent relative humidity, were the test insects. The flies were immobilized by anesthetizing with carbon dioxide and twenty five immobilized individuals, males and females, were transferred to a cage consisting of a standard food strainer about five inches in diameter which was inverted over a wrapping-paper-covered surface. The test compounds were formulated by diluting the stock suspension with a 10 percent (by weight) sugar solution to give a suspension containing 500 parts of test compound per million parts of final formulation, by weight. Ten milliliters of the test formulation were added to a souffle cup containing a one-inch square of an absorbent cotton pad. This bait cup was introduced and centered on the blotting paper under the food strainer prior to admitting the anesthetized flies. The caged flies were allowed to feed on the bait for twenty four hours, at a temperature of 80°±5° F. and the relative humidity of 50±5 percent.
as §2

For the compound `CN(SN(C)C(=O)Oc1cccc2c1OC(C)(C)C2)C(=O)Oc1ccccc1C1SCCS1`, in [1], the “Pesticidal Activity, Southern Armyworm” value is reported as “A”. In the data set on Corn, the “Phytotoxicity, Corn” value was 1. In addition, the “Phytotoxicity, Cotton” value in the data set with Cotton is reported as 1. Besides, in the data set with Soybean, the “Phytotoxicity, Soybean” value is 1. Further, in the data set with Tomato, the “Phytotoxicity, Tomato” value was determined as 1. Besides, in the data set on Bean, the “Phytotoxicity, Bean” value was determined as 1. Further, in [2], the “Pesticidal Activity, Mite” value is listed as “B”. Moreover, in data set [3], the “Pesticidal Activity, Mexican Bean Beetle” value is given as “A”. For the same compound, in data set [4], the “Pesticidal Activity, Aphid” value is given as “A”. In addition, the “Pesticidal Activity, House fly” value in [5] is given as “A”.
Consider `COC(=O)Nc1ccc(OC(=O)N(C)SN(C)C(=O)Oc2ccc(NC(=O)OC)c(C(C)C)c2)cc1C(C)C`, for which the “Pesticidal Activity, Southern Armyworm” value in [1] was “A”. The “Phytotoxicity, Corn” value in the data set with Corn is on record as 1. Also, the “Phytotoxicity, Cotton” value in the data set with Cotton turned out to be 1. For the same compound, in the data set on Soybean, the “Phytotoxicity, Soybean” value is recorded as 1. Besides, in the data set with Tomato, the “Phytotoxicity, Tomato” value was determined as 1. The “Phytotoxicity, Bean” value in the data set with Bean worked out at 1. Further, the “Pesticidal Activity, Mite” value in [2] is reported as “C”. Moreover, the “Pesticidal Activity, Mexican Bean Beetle” value in [3] is “A”. In [4], the “Pesticidal Activity, Aphid” value is listed as “C”. Also, the “Pesticidal Activity, House fly” value in [5] was “C”.
On to `Cc1cc(OC(=O)N(C)SN(C)C(=O)Oc2ccc(N=CN(C)C)c(C)c2)ccc1N=CN(C)C` [drawing 37], for which the “Pesticidal Activity, Southern Armyworm” value in data set [1] was “A”. Also, in the data set with Corn, the “Phytotoxicity, Corn” value was 1. Moreover, in the data set on Cotton, the “Phytotoxicity, Cotton” value is 1. For the same compound, the “Phytotoxicity, Soybean” value in the data set with Soybean is recorded as 1. Also, the “Phytotoxicity, Tomato” value in the data set on Tomato was determined as 1. Also, the “Phytotoxicity, Bean” value with Bean came out at 1. In addition, the “Pesticidal Activity, Mite” value in data set [2] was “A”. In addition, the “Pesticidal Activity, Mexican Bean Beetle” value in [3] was “A”. Moreover, the “Pesticidal Activity, Aphid” value in data set [4] is on record as “A”. For the same compound, in data set [5], the “Pesticidal Activity, House fly” value was “A”.
In the case of `CN(SN(C)C(=O)Oc1ccc(Oc2ccccc2)cc1)C(=O)Oc1ccc(Oc2ccccc2)cc1`, the “Pesticidal Activity, Southern Armyworm” value in data set [1] is on record as “C”. Moreover, the “Phytotoxicity, Corn” value in the data set with Corn stood at 1. Moreover, the “Phytotoxicity, Cotton” value in the data set with Cotton is reported as 1. Further, the “Phytotoxicity, Soybean” value in the data set on Soybean is 1. Besides, the “Phytotoxicity, Tomato” value in the data set with Tomato was found to be 1. Besides, the “Phytotoxicity, Bean” value in the data set on Bean is listed as 1. The “Pesticidal Activity, Mite” value in [2] was “C”. In data set [3], the “Pesticidal Activity, Mexican Bean Beetle” value is on record as “C”. Besides, the “Pesticidal Activity, Aphid” value in data set [4] is on record as “C”. The “Pesticidal Activity, House fly” value in data set [5] was “C”.
